# Laboratory results as given in PubChem BioAssay (NCI).
#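 Step 1: Grow cells in 96-well plates. Step 2: Expose to compound for 48 hours at 5 concentrations. Step 3: Interpolate endpoints linearly; if unreached, use highest concentration. The concentration for 50% growth inhibition is given as GI50. Definition used: TGI = concentration required for complete inhibition of growth.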 Where a SMILES comes first, the peptide text is derived from it. The star is where a group is joined. Boc = CC(C)(C)OC(=O)*; OtBu = CC(C)(C)O*
# What was measured:
# Assay in all cases: inhibition of tumour cell growth, NCI panel, 48 h
# [1] = test system: A498 renal
# [2] = test system: EKVX NSCLC
# [3] = test system: HL-60(TB) leukemia
# [4] = test system: MDA-MB-435
# [5] = test system: SK-MEL-5 melanoma
# [6] = test system: SK-OV-3 ovarian
# [7] = test system: TK-10 renal
# [8] = test system: UACC-62 melanoma
SMILES,TGI [1] [µM],TGI [2] [µM],TGI [3] [µM],TGI [4] [µM],TGI [5] [µM],TGI [6] [µM],TGI [7] [µM],TGI [8] [µM],GI50 [1] [µM],GI50 [2] [µM],GI50 [3] [µM],GI50 [4] [µM],GI50 [5] [µM],GI50 [6] [µM],GI50 [7] [µM],GI50 [8] [µM]
N#Cc1nc(CCC(C(=O)O)N2C(=O)c3ccccc3C2=O)oc1N (stereo not drawn),> 100,> 100,> 100,> 100,> 100,> 100,> 100,> 100,,,,,,,,
CC(=O)OC1=C(c2ccccc2)S(=O)(=O)c2ccccc21,> 100,> 100,> 100,> 100,> 100,,> 100,> 100,,,,,,,,
CN(C)CCCCN1c2ccccc2Sc2ccc(N=[N+]=[N-])cc21,21.5,26.3,4.3,4.36,3.04,26.5,24.7,3.77,,,,,,,,
CC(=O)OC(C(=O)NNC(=O)OC(C)(C)C)c1ccccc1 (stereo not drawn),,> 100,,> 100,> 100,> 100,> 100,> 100,,,,,,,,
NS(=O)(=O)c1ccc(NNc2c3ccccc3nc3c(C(=O)Nc4ccc(S(N)(=O)=O)cc4)cccc23)cc1,> 100,> 100,68.9,> 100,> 100,> 100,> 100,> 100,,,,,,,,
NC(Cc1c2ccccc2cc2ccccc12)C(=O)O (stereo not drawn),,> 100,> 100,> 100,> 100,> 100,> 100,> 100,,,,,,,,
C[N+](C)(C)CC(=O)N/N=C\c1c(O)ccc2ccccc12,97.8,> 100,43.3,> 100,39.3,> 100,> 100,> 100,,,,,,,,
Nc1nc(NCc2ccccc2)cc(NCc2ccccc2)n1,14.5,41,> 100,18.9,19.7,33.7,22.3,16.5,,,,,,,,
N#CC(C#N)=CNC(=S)Nc1ccc(S(=O)(=O)Nc2nccs2)cc1,> 100,> 100,> 100,> 100,> 100,> 100,> 100,> 100,,,,,,,,
C=C1C(=O)O[C@H]2[C@@H]3O[C@@](C)(CC/C=C(\C)CCC[C@@H]2C)[C@H](O)C[C@@H]13,> 100,> 100,53,53.6,6.36,32.5,17.4,20.9,,,,,,,,
CC(C)C1CC(CO)(CNc2nc(N)nc(Cl)c2C=O)C1 (stereo not drawn),56.1,11.4,3.92,4.58,,61.7,> 100,4.11,,,,,,,,
CC(=O)OCCn1c(Cc2ccc(Cl)cc2)nn(C(C)=O)c1=O,> 100,> 100,> 100,> 100,> 100,> 100,> 100,> 100,,,,,,,,
O=c1oc2cc(O)ccc2c(O)c1C(c1ccc(/C=C/c2ccccc2)cc1)c1c(O)c2ccc(O)cc2oc1=O,> 100,> 100,69.6,> 100,95,> 100,> 100,> 100,,,,,,,,
COc1ccc2c(c1)SC1=Nc3sc4cc(OC)ccc4[n+]3CN12,,> 100,63.5,> 100,15.6,> 100,> 100,42.4,,,,,,,,
COc1cc(CCNC2=CC(=O)c3ncccc3C2=O)ccc1O,32.4,37.9,> 26.9,2.84,1.84,41.7,70.8,3.8,,,,,,,,
C/C(=N\NC(N)=O)C(CN1CCOCC1)C(c1ccccc1)c1c(O)c2ccccc2oc1=O (stereo not drawn),91.8,> 100,> 100,> 100,> 100,> 100,> 100,> 100,,,,,,,,
CC(=O)Nc1ccc2c3c(cc(O)c2c1)N(C(=O)CCCCCCC(=O)Nc1ccc2c4c(cc(O)c2c1)N(C(=O)OC(C)(C)C)CC4CCl)CC3CCl (stereo not drawn),0.0819,1.08,0.241,0.305,0.0783,23.9,,0.219,,,,,,,,
O=C1/C(=C/c2ccc(Cl)cc2)NC(=S)N1CN1CCCCC1,> 100,> 100,,> 100,97.4,> 100,> 100,54.4,,,,,,,,
COc1nc2c(c(=O)[nH]1)N=C(c1ccc([N+](=O)[O-])cc1)CC(c1ccccc1)N2 (stereo not drawn),> 100,> 100,46.6,> 100,> 100,,,> 100,,,,,,,,
CCOP(=O)(OCC)/C(F)=C/c1ccc(F)cc1,> 100,> 100,> 100,> 100,> 100,> 100,> 100,> 100,,,,,,,,
COc1cc(/C=C2\C(=O)Nc3ccc(O)cc32)cc(OC)c1OC,40.6,59,40.7,17.1,25.1,98.1,> 100,26.6,18.3,18.6,6.11,3.96,6.31,27.8,40,11.7
CSc1ccc(/C=C2\N=C(c3ccccc3)N(NC(=O)c3c(Cl)c(Cl)c(Cl)c(Cl)c3-c3nc4ccccc4[nH]3)C2=O)cc1,80.3,> 100,61,19.7,> 100,> 100,,59,,,,,,,,
CC(C)(C)OC(=O)CC(NC(=O)OC(C)(C)C)C(=O)NC(Cc1ccccc1)C(N)=O (stereo not drawn) (Boc-Asp(OtBu)-Phe-NH2; configuration not given here),> 100,> 100,,> 100,> 100,> 100,> 100,,,,,,,,,
Cc1ccc(Nc2nc3ccccc3nc2NS(=O)(=O)c2ccc(N)cc2)cc1,,> 100,80.5,> 100,> 100,> 100,> 100,> 100,,,,,,,,
C/C(=C\COP(=O)(O)CP(=O)(O)O)CC/C=C(\C)CNc1ccccc1,,30.3,> 100,> 100,> 100,> 100,> 100,> 100,,,,,,,,
COc1ccccc1Nc1nc(N)nc(N)c1N,> 100,> 100,85,82.6,> 100,> 100,> 100,> 100,,,,,,,,

SMILES,TGI [1] [µM],TGI [2] [µM],TGI [3] [µM],TGI [4] [µM],TGI [5] [µM],TGI [6] [µM],TGI [7] [µM],TGI [8] [µM],GI50 [1] [µM],GI50 [2] [µM],GI50 [3] [µM],GI50 [4] [µM],GI50 [5] [µM],GI50 [6] [µM],GI50 [7] [µM],GI50 [8] [µM]
COc1ccc(CCN2C(=O)C(=O)C(C(=O)c3ccccc3)C2c2ccccc2)cc1OC (stereo not drawn),> 100,> 100,> 100,> 100,> 100,> 100,> 100,> 100,,,,,,,,
COc1ccc(C2OC2C(=O)C23CC4CC(CC(C4)C2)C3)cc1 (stereo not drawn),> 100,> 100,97.2,> 100,> 100,,> 100,49,,,,,,,,
O=c1cc(O)c1=O,> 100,> 100,> 100,> 100,> 100,> 100,> 100,> 100,,,,,,,,
CCOC(=O)c1c2ccccc2n2c(=O)n(-c3ccccc3)nnc12,> 100,> 100,> 100,> 100,41.7,> 85,> 100,> 100,,,,,,,,
COc1ccc(CC(COS(=O)(=O)c2ccc(C)cc2)NS(=O)(=O)c2ccc(C)cc2)cc1 (stereo not drawn),35.8,31.6,,28.5,24.6,43.7,43.6,43.8,,,,,,,,
CCOC(=O)c1cn2c(n1)sc1cc([N+](=O)[O-])ccc12,> 100,> 100,,> 100,> 100,> 100,> 100,> 100,,,,,,,,
CC(C)=CCN1c2ccccc2[C@@]2(CC=C(C)C)CCN(C)[C@@H]12,,64.3,38.1,54.3,33.2,77.1,> 100,34.8,,,,,,,,
CCOC(=O)n1c(=O)nc2c3c(ncn21)Oc1c(c(-c2ccccc2)nn1-c1ccccc1)C3c1ccc(Cl)cc1 (stereo not drawn),3.85,,2.78,3.03,3.07,6.47,3.07,3.1,,,,,,,,
CCO/C=N\C1=C(C#N)SC2=N/C(=C\c3ccco3)C(=O)N21,> 100,> 100,> 100,> 100,> 100,> 100,> 100,,,,,,,,,
COCc1nc(C#N)c(N)o1,,> 10,> 10,> 10,> 10,> 10,> 10,> 10,,,,,,,,
COC(=O)c1c(O)ccc2c1c1c(n2CCc2ccccc2)C(=O)c2ccccc2C1,40.5,,65.3,67,43,64.2,> 100,37.2,,,,,,,,
C/C(=C/C(=O)N(C)c1ccccc1Cl)O[Si](C(C)C)(C(C)C)C(C)C,,75.3,,> 100,30.8,> 100,> 100,,,,,,,,,
CCOc1cc(NC(C)=O)ccc1C(=O)NN1C(=O)/C(=C/c2ccc(Cl)cc2)N=C1c1ccccc1,81.4,> 100,89.6,> 100,81.3,> 100,> 100,,,,,,,,,
CCOC(=O)c1nc2ccccc2nc1Oc1ccc(F)cc1,> 100,> 100,,> 100,> 100,> 100,> 100,> 100,,,,,,,,
Cc1c(CNc2ccc(Cl)c(Cl)c2Cl)cnc2nc(N)nc(N)c12,> 100,> 69,15.3,> 48.1,,> 52.4,48.3,15.8,,,,,,,,
CC(C)c1cc(C(C)C)c(S(=O)(=O)N/N=C2\CC3CCC2(C)C3(C)C)c(C(C)C)c1 (stereo not drawn),32.7,71.5,,> 100,30.5,> 100,> 100,> 100,,,,,,,,
COc1cccc(O)c1-c1cc(=O)c2c(O)c(OC)c(OC)c(OC)c2o1,,> 100,46.7,55.4,39.4,89.3,> 100,32.8,,,,,,,,
O=c1[nH]nc(Nc2ccc(Cl)cc2)c2nnn(-c3ccc([N+](=O)[O-])cc3)c12,,> 100,> 100,> 100,22.7,,46.7,,,,,,,,,
CN1CN(c2ccccc2)C2(CCN(CCCN(C)c3ccc(F)cc3)CC2)C1=O,72.6,,26.2,37.4,29.8,42.3,44.9,36.5,,,,,,,,
CC(=O)OCC1OC(NC(=S)Nn2c(-c3ccccc3)nc3ccccc3c2=O)C(OC(C)=O)C(OC(C)=O)C1OC(C)=O (stereo not drawn),> 100,> 100,> 100,> 100,> 100,> 100,,> 100,,,,,,,,
Cc1nnc(NS(=O)(=O)c2ccc(N=Nc3c(O)c(C(=O)O)cc4ccccc34)cc2)s1,,> 100,> 100,> 100,> 100,> 100,> 100,> 100,,,,,,,,
NCCCc1nonc1C(=O)O,,> 100,> 100,> 100,> 100,> 100,> 100,> 100,,,,,,,,
COC(=O)c1c(C(=O)OC)c2ccccn2c1-c1cc(C)cc2c1C(=O)C=CC2=O,17.5,21.7,5.04,16,17,,18.4,17.7,,,,,,,,
O=C(c1ccccc1)N1N=C(C(F)(F)F)CC1(O)C(F)(F)F (stereo not drawn),> 100,> 100,> 100,> 100,,,> 100,,,,,,,,,
CC(C)CCNC(=O)c1ccc(CNC(=O)/C=C/c2ccc3c(c2)-c2ccccc2C3)cc1,> 100,> 100,,> 100,> 100,> 100,> 100,> 100,,,,,,,,
